Experimental data from patent publication US20140057978A1, “NOVEL USE OF BENZOFURANYLSULFONATES” (priority 2011, published 2014).

Key:
[1] = system: Schwann cells of embryonic DRG explants; assay: Schwann cell expansion in embryonic DRG explants; assay type: cell-based, rat; conditions: for Schwann cell expansion (numbers of Schwann cells outside the DRG explant core): 22 hours in vitro, versus vehicle
Description: (§1) In vitro experiments with a benzofuranylsulfonate to improve axonal growth and Schwann cell expansion in embryonic DRG (Dorsal Root Ganglion) explants of rats.
(§2) Outgrowth studies with Methanesulfonic acid 2-(2,4-dichloro-benzoyl)-3-ureido-benzofuran-6-yl ester or the vehicle were performed on embryonic neural tissue. DRGs of thoracic, lumbar, and sacral levels were prepared from Wistar rat embryos E18-20 and processed in ice cold 0.6% glucose in PBS. Harvested DRGs were freed from attaching nerve fibres, dissected, and transferred onto PDL- and laminin-coated glass coverlips. To avoid cluster formation, a maximum of two DRG explants were transferred onto a single glass coverslip. Following an initial attachment phase, the pre-incubation medium was replaced by fully supplemented growth medium spiked with the test item (Methanesulfonic acid 2-(2,4-dichloro-benzoyl)-3-ureido-benzofuran-6-yl ester groups 2 and 3) or vehicle (DMF, group 1) and incubated at 37° C./10% CO2 for additional 22 hours in vitro. Following 22 hours in vitro, the DRG explants were fluorescently labelled and axonal growth and Schwann cell expansion were quantitatively assessed.
(§3) Group 1: Fully supplemented growth medium with 0.1% vehicle. Group 2: Fully supplemented growth medium with 0.1% vehicle and Methanesulfonic acid 2-(2,4-dichloro-benzoyl)-3-ureido-benzofuran-6-yl ester at a final concentration of 0.1 μM. Group 3: Fully supplemented growth medium with 0.1% vehicle and Methanesulfonic acid 2-(2,4-dichloro-benzoyl)-3-ureido-benzofuran-6-yl ester at a final concentration of 1 μM.
Data are presented as the mean values and standard deviations of the numbers of Schwann cells outside the DRG explant core.

[2] = system: severe contusive SCI in Lewis rats; assay: BBB open field locomotor rating scale after severe spinal cord contusion injury; assay type: in vivo; conditions: rat, oral
Description: Oral treatment with a benzofuranylsulfonate after severe spinal cord contusion injury in the rat.
Thirteen week-old female Lewis rats (Charles River, Sulzfeld Germany) were housed under a 12:12 h dark/light regime and allowed free access to water and food. After one week of habituation the animals underwent general anesthesia with a mixture of isoflurane and air (induction: 5% isoflurane, maintenance: 2.2% isofluorane). A Th10 laminectomy was performed without rupturing the dura and a severe contusive SCI (25 gcm NYU/MASCIS II impactor) (Gruner, 1992) was induced. After suturing muscle and skin, a subcutaneous (s.c.) injection of 5 ml of Ringers Lactate was given. Bladders were emptied manually 2 times a day until spontaneous voiding returned (usually within 1 week). The lesion severity was verified by the impact velocity and contusion depth of the impactor rod. Animals with an impact velocity error >5% were excluded from further analysis. After injury, individual rats were randomly assigned into a treatment group. The following groups were used: […]
The BBB open field locomotor rating scale: The BBB locomotor rating scale was used to assess general locomotor performance (Basso et al., 1995). The score was assessed before injury and at 1, 3, 5, 7, 14, 21, 35, 42, 49, 56 and 63 days post operation (dpo) by 2 blinded observers.

[3] = system: embryonic DRG (Dorsal Root Ganglion) explants; assay: Axonal growth in embryonic DRG explants; assay type: cell-based, rat; conditions: 22 hours in vitro
Description: as §1, §2, §3
Morphometric data are presented as the mean values and standard deviations of the axonal growth area in μm^2.

## CS(=O)(=O)Oc1ccc2c(NC(N)=O)c(C(=O)c3ccc(Cl)cc3Cl)oc2c1 [methanesulfonic acid 2-(2,4-dichloro-benzoyl)-3-ureido-benzofuran-6-yl ester]
[1]; 0.1 μM
  Schwann cell expansion (numbers of Schwann cells outside the DRG explant core): significant increase
[1]; 1 μM
  Schwann cell expansion (numbers of Schwann cells outside the DRG explant core): significant increase
[1]; treated cultures versus vehicle-treated cultures, highest at 0.1 μM
  increase of Schwann cell numbers (fold): nearly fivefold
[2]; 10 mg in vehicle, vehicle animals 7.8
  BBB score at steady state: 8.8
[2]; 10 mg, DPO 56, Students T-Test p=0.01
  BBB performance compared to vehicle controls at the end of the experiment: significantly better
[3]; 0.1 μM
  growth area of outgrowing axons, as compared to vehicle-treated cultures: significant increase
[3]; 1 μM
  growth area of outgrowing axons, as compared to vehicle-treated cultures: significant increase
[3]; 1 μM, versus vehicle
  elevation of axonal growth areas (fold): nearly five fold
